{
  "source": "patent US20050202465A1",
  "about": "“Thymidylate synthase gene and metastasis” (The Johns Hopkins University, priority 2004, published 2005)",
  "system": "colorectal cancer metastases",
  "experiment": "Overall survival after surgical removal of metastases in 5-FU treated colorectal cancer patients, by TYMS amplification status",
  "format": "in vivo, human",
  "conditions": "for Median survival after metastasis removal / Survival range after metastasis removal: previous treatment 5-FU",
  "protocol": "Tissue samples, including normal tissues, primary tumors, and metastases were obtained from colorectal cancer patients undergoing surgery at the Johns Hopkins Hospital between 1990 and 2002. A diagnosis of colorectal cancer was established by histological examination of surgical specimens and clinical information was retrospectively retrieved from patient records. Acquisition of tissue specimens and examination of clinical records was approved by an institutional review board and was performed in accordance with HIPAA regulations. Metastatic samples were obtained from complete resections, debulking, or biopsies of metastatic lesions.\nOverall survival was calculated from the date of the surgical excision of the metastasis to the date of death or last follow-up and computed by Kaplan-Meier method. Data were censored when patients were lost to follow-up.\nA corollary of this idea is that such patients would fare worse than those without TYMS amplification, as post-surgical therapy of patients with metastatic cancers often involves retreatment with 5-FU plus other agents (see Introduction). To evaluate this possibility, we compared the survival of patients with metastatic lesions that had previously been treated with 5-FU, segregated according to TYMS amplification status. Although the average age, stage at initial diagnosis, and metastasis size and location were similar between patients with and without increased TYMS gene copies, the median overall survival following surgical removal of metastases among patients with TYMS gene amplification was 329 days, as compared with 1021 days for patients without TYMS amplification (Table 2, p<0.01, t-Test). […] These differences were also significant in Kaplan-Meier analyses (FIG. 4).",
  "key": {"[1]": {"conditions": "Group A (n = 6), TYMS amplified in metastasis"}, "[2]": {"conditions": "Group B (n = 21), TYMS not amplified in metastasis"}},
  "data": [
    {"smiles": "O=c1[nH]cc(F)c(=O)[nH]1", "note": "[5-FU, 5-fluorouracil]", "values": [
      {"measurement": "Relative risk of death, patients with TYMS amplification vs without", "setting": "5-FU treated patients, proportional hazard model, 95% confidence interval 1.06-11.4, p<0.05", "result": 3.5, "unit": "fold"},
      {"measurement": "Median survival after metastasis removal", "setting": "[1]", "result": 329, "unit": "days"},
      {"measurement": "Survival range after metastasis removal", "setting": "[1]", "result": "(109-708 days)"},
      {"measurement": "Median survival after metastasis removal", "setting": "[2]", "result": 1021, "unit": "days"},
      {"measurement": "Survival range after metastasis removal", "setting": "[2]", "result": "(255-3790 days)"}
    ]}
  ]
}
